Reference: patent US20070113300A1 (priority 2003, published 2007)

biological target: ClpP Enzyme; type: biochemical; details: pH 8

| Compound | IC50 |
| --- | --- |
| Clc1nc2ccccc2nc1N1CC1 [(II)] | 19 µM |
| O=[N+]([O-])C(=C1Nc2ccccc2N1)C(Cl)=C(Cl)Cl [(I)] | 23 µM |
| COc1ccc(/C=C(\C#N)c2nnc(/N=C/N(C)C)s2)cc1 [(III)] | 25 µM |
